PubChem BioAssay (NCI)
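Interpolation was linear, between the two tested concentrations surrounding the appropriate level; five concentrations were tested over 48 hours in 96-well plates. TGI: concentration producing complete growth inhibition.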

Assays:
Experiment in all cases: growth of human tumour cells (NCI), 48 h
OVCAR-5 ovarian = system: OVCAR-5 ovarian
T-47D breast = system: T-47D breast
SK-MEL-2 melanoma = system: SK-MEL-2 melanoma
COLO 205 colon = system: COLO 205 colon
MALME-3M melanoma = system: MALME-3M melanoma
NCI-H460 lung = system: NCI-H460 lung
SK-MEL-5 melanoma = system: SK-MEL-5 melanoma
RXF 393 renal = system: RXF 393 renal
HCT-116 colon = system: HCT-116 colon
NCI/ADR-RES ovarian = system: NCI/ADR-RES ovarian
HCT-15 colon = system: HCT-15 colon
RPMI-8226 leukemia = system: RPMI-8226 leukemia
U251 CNS = system: U251 CNS
HT29 colon = system: HT29 colon
A549 NSCLC = system: A549 NSCLC
BT-549 breast = system: BT-549 breast
A498 renal = system: A498 renal
CAKI-1 renal = system: CAKI-1 renal
HOP-62 NSCLC = system: HOP-62 NSCLC
MDA-N = system: MDA-N
HCC-2998 colon = system: HCC-2998 colon
SK-MEL-28 melanoma = system: SK-MEL-28 melanoma
SW-620 colon = system: SW-620 colon
M14 melanoma = system: M14 melanoma
SNB-19 CNS = system: SNB-19 CNS
SK-OV-3 ovarian = system: SK-OV-3 ovarian
TK-10 renal = system: TK-10 renal
NCI-H23 lung = system: NCI-H23 lung
UACC-257 melanoma = system: UACC-257 melanoma
IGROV1 ovarian = system: IGROV1 ovarian
UACC-62 melanoma = system: UACC-62 melanoma
EKVX NSCLC = system: EKVX NSCLC
HS 578T breast = system: HS 578T breast
DU-145 prostate = system: DU-145 prostate
MDA-MB-231 breast = system: MDA-MB-231 breast
UO-31 renal = system: UO-31 renal
KM12 colon = system: KM12 colon
786-0 renal = system: 786-0 renal
SF-295 CNS = system: SF-295 CNS
CCRF-CEM leukemia = system: CCRF-CEM leukemia
SF-539 CNS = system: SF-539 CNS
NCI-H522 lung = system: NCI-H522 lung
HOP-92 NSCLC = system: HOP-92 NSCLC
SF-268 CNS = system: SF-268 CNS
K-562 leukemia = system: K-562 leukemia
OVCAR-3 ovarian = system: OVCAR-3 ovarian
MOLT-4 leukemia = system: MOLT-4 leukemia
NCI-H226 lung = system: NCI-H226 lung
LOX IMVI melanoma = system: LOX IMVI melanoma
SN12C renal = system: SN12C renal
MDA-MB-435 = system: MDA-MB-435
OVCAR-4 ovarian = system: OVCAR-4 ovarian
MCF7 breast = system: MCF7 breast
HL-60(TB) leukemia = system: HL-60(TB) leukemia
OVCAR-8 ovarian = system: OVCAR-8 ovarian
PC-3 prostate = system: PC-3 prostate

O=[N+]([O-])c1ccc2nc3c(nc2c1)-c1c2ccccc2cc2cccc-3c12
TGI (OVCAR-5 ovarian): > 100 µM
TGI (T-47D breast): 4.11 µM
TGI (SK-MEL-2 melanoma): 90 µM
TGI (COLO 205 colon): > 100 µM
TGI (MALME-3M melanoma): 76.5 µM
TGI (NCI-H460 lung): > 100 µM
TGI (SK-MEL-5 melanoma): > 100 µM
TGI (RXF 393 renal): 63.6 µM
TGI (HCT-116 colon): > 100 µM
TGI (NCI/ADR-RES ovarian): 28.3 µM
TGI (HCT-15 colon): > 100 µM
TGI (RPMI-8226 leukemia): 98.8 µM
TGI (U251 CNS): > 66 µM
TGI (HT29 colon): > 100 µM
TGI (A549 NSCLC): > 100 µM
TGI (BT-549 breast): 17.9 µM
TGI (A498 renal): 2.37 µM
TGI (CAKI-1 renal): > 40.7 µM
TGI (HOP-62 NSCLC): 77.2 µM
TGI (MDA-N): 47.9 µM
TGI (HCC-2998 colon): > 100 µM
TGI (SK-MEL-28 melanoma): > 100 µM
TGI (SW-620 colon): > 100 µM
TGI (M14 melanoma): > 91.7 µM
TGI (SNB-19 CNS): > 54.5 µM
TGI (SK-OV-3 ovarian): 60.9 µM
TGI (TK-10 renal): > 100 µM
TGI (NCI-H23 lung): 24.5 µM
TGI (UACC-257 melanoma): > 94.6 µM
TGI (IGROV1 ovarian): > 28.4 µM
TGI (UACC-62 melanoma): 39.2 µM
TGI (EKVX NSCLC): > 100 µM
TGI (HS 578T breast): 33 µM
TGI (DU-145 prostate): > 100 µM
TGI (MDA-MB-231 breast): 64.2 µM
TGI (UO-31 renal): > 70.9 µM
TGI (KM12 colon): > 100 µM
TGI (786-0 renal): > 100 µM
TGI (SF-295 CNS): 59.5 µM
TGI (CCRF-CEM leukemia): > 100 µM
TGI (SF-539 CNS): 40.5 µM
TGI (NCI-H522 lung): 7.85 µM
TGI (HOP-92 NSCLC): 58 µM
TGI (SF-268 CNS): > 100 µM
TGI (K-562 leukemia): > 85.9 µM
TGI (OVCAR-3 ovarian): 51.7 µM
TGI (MOLT-4 leukemia): 31.7 µM
TGI (NCI-H226 lung): > 100 µM
TGI (LOX IMVI melanoma): > 23.6 µM
TGI (SN12C renal): > 100 µM
TGI (MDA-MB-435): > 83.9 µM
TGI (OVCAR-4 ovarian): > 100 µM
TGI (MCF7 breast): > 100 µM
TGI (HL-60(TB) leukemia): > 100 µM
TGI (OVCAR-8 ovarian): > 30.6 µM
TGI (PC-3 prostate): > 66.6 µM
